Reference: ChEMBL document CHEMBL3621146, “Design of Potent and Orally Active GPR119 Agonists for the Treatment of Type II Diabetes” (ACS Med Chem Lett, 2015)

Tests used:
[1] = Fraction unbound in rat plasma; format: ADME, cell-free
Rattus norvegicus = assay: Unbound volume of distribution in Wistar Han rat at 0.5 mg/kg, iv LC-MS/MS method; format: ADME, organism-based; conditions: in vivo
[2] = Clearance in Wistar Han rat at 0.5 mg/kg, iv LC-MS/MS method; format: ADME, organism-based; conditions: in vivo
[3] = Half life in Wistar Han rat at 0.5 mg/kg, iv LC-MS/MS method; format: ADME, organism-based; conditions: Wistar Han, in vivo
[4] = Volume of distribution in Wistar Han rat at 0.5 mg/kg, iv LC-MS/MS method; format: ADME, organism-based; conditions: Wistar Han, in vivo
[5] = Lipophilicity, logD of the compound at pH 7 by HPLC method; format: physicochemical; conditions: buffer
[6] = Intrinsic clearance in rat liver microsomes; format: ADME; conditions: read-out: CLH
[7] = target: T1, Glucose-dependent insulinotropic receptor (Homo sapiens, UniProt Q8TDV5); assay: Agonist activity at human GPR119 expressed in CHO cells by cAMP assay; format: functional, cell-based
T1 sequence (Q8TDV5 whole entry): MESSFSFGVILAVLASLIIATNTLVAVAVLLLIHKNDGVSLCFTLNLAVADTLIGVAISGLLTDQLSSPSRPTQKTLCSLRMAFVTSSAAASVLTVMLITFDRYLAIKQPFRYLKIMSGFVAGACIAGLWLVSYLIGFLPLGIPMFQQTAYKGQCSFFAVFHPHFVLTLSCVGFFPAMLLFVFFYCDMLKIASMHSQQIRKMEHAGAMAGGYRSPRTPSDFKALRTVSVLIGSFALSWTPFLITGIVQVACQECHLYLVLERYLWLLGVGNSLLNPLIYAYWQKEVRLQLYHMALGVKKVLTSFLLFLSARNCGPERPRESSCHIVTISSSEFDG

[8] = target: T2, Glucose-dependent insulinotropic receptor (Mus musculus, UniProt Q7TQP3); assay: Agonist activity at mouse GPR119 by cAMP assay; format: functional
T2 sequence (Q7TQP3 whole entry): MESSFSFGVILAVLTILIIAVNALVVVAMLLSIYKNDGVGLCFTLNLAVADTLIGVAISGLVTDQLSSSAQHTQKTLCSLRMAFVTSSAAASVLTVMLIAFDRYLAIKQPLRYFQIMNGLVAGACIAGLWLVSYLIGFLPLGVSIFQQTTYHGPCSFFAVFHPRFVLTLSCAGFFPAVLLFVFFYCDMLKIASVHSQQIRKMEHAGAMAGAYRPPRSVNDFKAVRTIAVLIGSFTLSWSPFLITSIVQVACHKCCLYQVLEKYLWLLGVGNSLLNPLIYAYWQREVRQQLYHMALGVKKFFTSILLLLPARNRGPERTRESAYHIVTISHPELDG

[9] = target: T3, Glucose-dependent insulinotropic receptor (Mus musculus) (UniProt Q7TQP3); assay: Agonist activity at mouse GPR119 by cAMP assay relative to control; format: functional; set-up: concentration or dose not given beside the values
T3 sequence (whole entry): T2 sequence (Q7TQP3 whole entry)

[10] = target: T4, Glucose-dependent insulinotropic receptor (Homo sapiens) (UniProt Q8TDV5); assay: Agonist activity at human GPR119 by cAMP assay relative to control; format: functional; set-up: concentration or dose not given beside the values
T4 sequence (whole entry): T1 sequence (Q8TDV5 whole entry)

fraction unbound [1]: 0.016 | Vdu (Rattus norvegicus): 81 L/kg | clearance [2]: 9 mL/min/kg | half-life [3]: 1.8 h | Vd [4]: 1.3 L/kg | logD [5]: 3.7 | CLint scaled [6]: 553 mL/min/kg | EC50 [7]: 8.7 nM | EC50 [8]: 3.6 nM | Activity [9]: 56% | Activity [10]: 53%
SMILES: CS(=O)(=O)c1ccc(COC[C@@H]2C[C@@H]2C2CCN(c3ncc(Cl)cn3)CC2)nc1
